Test results: patent US20250032523A1, “ACTIVE HUMAN MILK OLIGOSACCHARIDE PREPARATION WITH ALLERGY-ALLEVIATING FUNCTION, AND USE THEREOF” (Zhejiang Gongshang University, priority 2023, published 2025)
“Also recorded” adds a separate entry of the source.

Key:
[1] = system: mouse bone marrow-derived DC line DC2.4; assay: Immune cell allergy model: RT-qPCR of allergy-associated genes in OVA-stimulated DC2.4 cells; format: cell-based; conditions: HMO preparation at final concentration 100 μg/mL, versus sensitization group
Protocol: (§1) In a fourth aspect, the present disclosure also provides a use of the active HMO preparation in construction of an immune cell allergy model, where the construction method of the immune cell allergy model includes the following steps: • (1) taking a cryopreserved mouse bone marrow-derived dendritic cell (DC) line DC2.4, and subjecting the cryopreserved mouse bone marrow-derived DC line DC2.4 to recovery, activation, and subculture in an incubator (37° C. and 5% CO2); • (2) sacrificing a Balb/c female mouse through cervical dislocation, collecting a spleen in a clean bench, subjecting the spleen to grinding, red blood cell lysis, washing, and re-suspension with a cell culture medium to obtain a mouse spleen single-cell suspension, and purifying T cells from the spleen single-cell suspension through magnetic bead separation; • (3) inoculating the cells in a 12-well cell culture plate, dividing the cells into a control group, a sensitization group, and an intervention group with 3 biological replicates for each group, and culturing the cells in an incubator (37° C. and 5% CO2); and • (4) extracting total RNA from cells, and detecting an RNA concentration with a nucleoprotein concentration meter for follow-up experiments; and reverse-transcribing the extracted RNA immediately into cDNA, conducting quantitative reverse transcription polymerase chain reaction (RT-qPCR), and with β-actin as an internal reference gene, calculating a relative expression level of a target gene by a 2^−ΔΔCt method.
(§2) In the present disclosure, an effect of the preparation is verified. When the immune cell allergy model is constructed, a sensitinogen used is ovalbumin (OVA), and relative expression levels of genes for a pro-inflammatory factor OX40L, an anti-inflammatory factor IL-10, a Th2-type cytokine IL-5, a Th1-type associated cytokine T-bet, a Th2-type cytokine IL-4, and a Th1-type associated cytokine IFN-γ are calculated.
(1) A cryopreserved mouse bone marrow-derived DC line DC2.4 was taken and subjected to recovery, activation, and subculture, and cells of generation 4 to 6 with a strong activity were selected for the experiment.
(3) The cells were divided into 4 groups with 3 replicates for each group, including a control group, a sensitization group, an HMO preparation intervention group 1 (Example 1), and an HMO preparation intervention group 2 (Example 2). In the HMO preparation intervention groups, an HMO preparation was added at a final concentration of 100 μg/mL to cells, and the cells were cultured in an incubator (37° C. and 5% CO2).
(§3) (4) Total RNA was extracted from cells and reverse-transcribed into cDNA, and an expression level of an allergy-associated gene in the cells was detected by RT-qPCR. […]

[2] = system: purified T cells from mouse spleen; assay: Immune cell allergy model: RT-qPCR of allergy-associated genes in OVA-stimulated purified T cells from mouse spleen; format: cell-based; conditions: HMO preparation at final concentration 100 μg/mL, versus sensitization group
Protocol: as §1, §2
(2) An SPF grade Balb/c female mouse was sacrificed through cervical dislocation and dissected under sterile conditions, a spleen tissue was collected and subjected to grinding, red blood cell lysis, washing, and re-suspension with an RPMI-1640 medium to prepare a mouse spleen single-cell suspension, and T cells in the mouse spleen were extracted through magnetic bead separation.
(3) The cells were divided into 4 groups with 3 replicates for each group, including a control group, a sensitization group, an HMO preparation intervention group 1 (Example 1), and an HMO preparation intervention group 2 (Example 2). […]
as §3

food allergy mice = assay: Food allergy mice (OVA sensitization), intragastric HMO preparation, RT-qPCR of spleen tissue; format: in vivo, mouse; conditions: OVA-sensitized mice, intragastric administration, versus sensitized mice
Source text: The anti-allergy active HMO preparations of LNFP-I and 2′-FL were intragastrically administered to food allergy mice to alleviate food allergy symptoms.
(1) Mice were intragastrically administered with OVA for sensitization, and then intervened with an HMO preparation intervention group 1 (Example 1) and an HMO preparation intervention group 2 (Example 2), respectively.
(2) The mice were sacrificed through cervical dislocation and dissected under sterile conditions, and spleen tissues were collected and stored in liquid nitrogen.
(3) Total RNA was extracted from each mouse spleen tissue and reverse-transcribed into cDNA, and an expression level of an allergy-associated gene was detected by RT-qPCR.
The anti-allergy active HMO preparations were intragastrically administered in a mass ratio of 1:3 to food allergy mice to alleviate food allergy symptoms.
(1) Mice were intragastrically administered with OVA for sensitization, and then intervened with the anti-allergy active HMO preparation prepared in Example 5 at a mass ratio of 1:3.

Substance | expression level of the gene for anti-inflammatory factor IL-10 (relative mRNA, RT-qPCR) [1] | expression level of the gene for pro-inflammatory factor OX40L (relative mRNA, RT-qPCR) [1] | expression level of the gene for Th1-type associated cytokine T-bet (relative mRNA, RT-qPCR) [2] | expression level of the gene for Th2-type cytokine IL-5 (relative mRNA, RT-qPCR) [2] | expression level of the gene for Th1-type associated cytokine IFN-γ in spleen (relative mRNA, RT-qPCR) (food allergy mice) | expression level of the gene for Th2-type cytokine IL-4 in spleen (relative mRNA, RT-qPCR) (food allergy mice)
lacto-N-fucopentaose I [intervention group 1] | significantly stimulate an expression level of a gene for IL-10 to further increase; also recorded: increases more than an expression level of the gene for IL-10 in the intervention group 2 | can be reduced | significantly stimulate an expression level of the gene for T-bet to increase; also recorded: increases more significantly than an expression level of the gene for T-bet in the intervention group 2 | decreases slightly | significantly stimulate an expression level of the gene for IFN-γ to further increase | does not change significantly
2′-fucosyllactose [intervention group 2] | significantly stimulate an expression level of a gene for IL-10 to further increase | can be reduced | significantly stimulate an expression level of the gene for T-bet to increase | decreases to some degree | greatly stimulate an expression level of the gene for IFN-γ to further increase | decrease significantly
